Assay results as given in patent publication US20070203225A1, “METHOD OF INCREASING ENDOGENOUS ADIPONECTIN PRODUCTION AND LEPTIN PRODUCTION” (priority 2001, published 2007).
“Also recorded” adds a separate entry of the source.

Tests used:
Format in all cases: cell-based
isolated rat adipocytes [1] = assay: Incorporation of glucose carbon into triglyceride in cultured adipocytes
Description: Incorporation of Glucose Carbon into Triglyceride: To measure glucose incorporation into triglyceride, cultures are exposed to media containing 0.01 uCi/ml of ^14C-glucose. After 96 hr, media and extracellular lipid is removed from the well and methanol added. Then scrape the collagen-cell matrix from the well and transfer into a 50 ml glass tube. Rinse the well and scrape again in methanol to assure complete transfer of cells. Total triglycerides will be extracted using the Folch method (Folch, 1957). An aliquot of the lipid extract will be placed into vials containing scintillation fluid then radioactivity will be measured.
The first measurement is used to calculate the amount of glucose incorporated into triglycerides. Another aliquot of the lipid extract is placed into pre-weighed aluminum pans to determine the total amount of triglyceride per well. The remaining lipid is saponified and acidified to separate the glycerol and fatty acids. An aliquot of the lipid extract is placed into vials containing scintillation fluid and counted. This second count represents the ^14C-glucose incorporation into fatty acids. By subtraction, the amount that was incorporated into triglyceride though glycerol is also determined. Glucose incorporation into triglyceride and into the fatty acid portion of the triglyceride are calculated by multiplying disintegration per min by total ug of glucose/well over the total DPM/well.

isolated rat adipocytes [2] = assay: Glucose utilization (uptake) by isolated cultured rat adipocytes; details: for effect on glucose utilization (in words): insulin 0.16 to 1.6 nM
Description: (§1) Cell isolation/preparation: Adipocytes are prepared from epididymal fat pads from male Sprague-Dawley rats weighing 300-600 g. Epididymal fat depots are resected from halothane anesthetized rats under aseptic conditions and adipocytes are isolated by collagenase digestion by the Rodbell method (Rodbell M. Metabolism of isolated fat cells. I. Effects of hormones on glucose metabolism and lipolysis. J Biol Chem. 1964; 239: 375-380), with minor modifications as previously described (Mueller W M, Gregoire F M, Stanhope K L, Mobbs C V, Mizuno T M, Warden C H, Stem J S, Havel P J. Evidence that glucose metabolism regulates leptin secretion from isolated adipocytes. Endocrinology 139: 551-558, 1998; Mueller W M, Stanhope K L, Gregoire F, Evans J L, Havel P J. Effects of metformin and vanadium on leptin secretion from cultured rat adipocytes. Obesity Res. 8: 530-539, 2000; Medina E A, Stanhope K L, Mizuno T M, Mobbs C V, Gregoire F, Hubbard N E, Erickson K L, Havel P J. Effects of tumor necrosis factor alpha on leptin secretion and gene expression: relationship to changes of glucose metabolism in isolated rat adipocytes. Int J Obes Relat Metab Disord. 23: 896-903, 1999.). The isolated adipocytes are then incubated for 30 minutes at 37 C before being plated and cultured on Matrigel-coated plates.
(§2) Adipocyte Culture: Adipocytes are maintained in culture anchored to a basement membrane matrix (Matrigel, Becton Dickinson, Franklin Lakes, N.J.) or collagen from Cohesion Technologies, (Palo Alto, Calif.). Although all in vitro systems have inherent advantages and disadvantages, advantages of this system compared with cultures containing free-floating adipocytes are that the matrix simulates their normal basement membrane attachment and that the cells are maintained in close proximity to each other, allowing direct cell to cell contact. Together the cell contact and basement membrane attachment help to maintain differentiation, since adipocytes have a strong tendency to dedifferentiate in long-term (>24 h) culture. In addition, the matrix and the small amount of serum in the media both contain growth factors, which are also likely to help in maintaining cell differentiation. Furthermore, the adipocytes in this system are not exposed to toxic levels of oxygen at the interface of the media and the incubator atmosphere, as opposed to free-floating adipocytes which aggregate at the surface of the media. An advantage of the system over those containing minced adipose tissue is that all of the cells in the culture are equally exposed to the nutrients and the oxygen dissolved in the media. Thus, although clearly different from the in vivo situation, this system provides a more physiological environment than most systems for maintaining adipocytes in long-term culture.
(§3) In culturing each suspension, Matrigel is first thawed on ice to a liquid and uniformly applied to the surface of culture dishes (300 μl Matrigel/35 mm well). After the incubation period, 150 μl of the adipocyte suspension (2:1 ratio of packed cells to media) are plated on the Matrigel or collagen matrix. Adipocytes from each suspension are thoroughly mixed with a transfer pipette before plating to insure that a similar number adipocytes with a similar size distribution are added to the control and experimental wells for each suspension. The warmth of the added cells and buffer causes the Matrigel to gel around the adipocytes, or the neutralization of the acidic pH of the collagen solution to 7.0 solidifies the collagen, and both of these techniques effectively anchor the adipocytes to the culture dish. After a 30 minute incubation at 37° C., 2 ml of warm culture medium is added. The cells are maintained in an incubator at 37° C. for 96 hours with 6% CO2. Aliquots of adipocytes from each animal are divided into wells, with the different concentrations of insulin or other agents to be tested. In each plate an appropriate control well contains adipocytes from the same animal. […]

isolated rat adipocytes [3] = assay: Lactate production and proportion of glucose anaerobically metabolized to lactate in isolated cultured rat adipocytes
Description: as §1, §2, §3

isolated rat adipocytes [4] = assay: Leptin secretion/production by isolated cultured rat adipocytes (RIA)
Description: as §1, §2, §3

leptin promoter = assay: Leptin promoter luciferase construct transfected into 3T3-L1 cells
[5] = DTNB 100 μM, NEM 0.1 μM, DCA 2 mM
[6] = DTNB 100.0 μM + insulin 0.48 nM vs control (insulin only)
[7] = DTNB 100.0 μM + insulin 0.48 nM, isolated rat adipocytes, 96 h culture

With `O=C(O)c1cc(SSc2ccc([N+](=O)[O-])c(C(=O)O)c2)ccc1[N+](=O)[O-]` [DTNB, 5,5′-Dithiobis(2-nitrobenzoate)] the “effect on proportion of glucose incorporated into TG (in words)” value (isolated rat adipocytes [1]; [5]) was “without affecting”, the “Change in Parameter: Glucose Uptake (μg) over 96 h” value (isolated rat adipocytes [2]; [6]) was “+348 ± 114 μg” and the “Glucose Uptake (μg) over 96 h” value (isolated rat adipocytes [2]; [7]) was 1384 ± 94 µg. For the same compound, the “effect on total / insulin-mediated glucose utilization (in words)” value (isolated rat adipocytes [2]; [5]) was “increased”, the “Change in Parameter: Glucose to Lactate (%)” value (isolated rat adipocytes [3]; [6]) was −9.5 ± 1.0% and the “Change in Parameter: Lactate Produced (μg) over 96 h” value (isolated rat adipocytes [3]; [6]) was -53 ± 25 µg. For the same compound, the “Glucose to Lactate (%)” value (isolated rat adipocytes [3]; [7]) was 13.1 ± 1.4%, the “Lactate Produced (μg) over 96 h” value (isolated rat adipocytes [3]; [7]) was 179 ± 22 µg and the “effect on glucose not converted to lactate or incorporated into TG (OTHER; glucose flux into oxidation), by subtraction (in words)” value (isolated rat adipocytes [3]; [5]) was “increased”. The “effect on proportion of glucose anaerobically metabolized to lactate (in words)” value (isolated rat adipocytes [3]; [5]) was “decreased”, the “effect on lactate production (in words)” value (isolated rat adipocytes [3]; DTNB 100 μM, NEM 0.1 μM, DCA 0.1 to 5.0 mM) was “without any increase” and the “% ΔLeptin Produced over 96 h” value (isolated rat adipocytes [4]; [6]) was “+57.3 ± 5.8%”. The “% Δ[Leptin] (ng/ml) at 96 h” value (isolated rat adipocytes [4]; [6]) was “+60.2 ± 8.3%”, the “Change in Parameter: Leptin (ng) Produced over 96 h” value (isolated rat adipocytes [4]; [6]) was “+18.4 ± 2.3 ng” and the “Change in Parameter: [Leptin] (ng/ml) at 96 h” value (isolated rat adipocytes [4]; [6]) was “+6.3 ± 0.8 ng/ml”. The “Leptin (ng) Produced over 96 h” value (isolated rat adipocytes [4]; [7]) was 55.6 ± 2.9 ng, the “[Leptin] (ng/ml) at 96 h” value (isolated rat adipocytes [4]; [7]) was 17.2 ± 0.9 ng/mL and the “effect on leptin production/secretion (in words)” value (isolated rat adipocytes [4]; PDH kinase inhibitors DTNB, NEM, DCA, cultured adipocytes) was “most potent stimulator; also recorded: increase”. For the same compound, the “increase of leptin production/secretion” value (isolated rat adipocytes [4]; PDH kinase inhibitors vs control: DTNB 100 μM, NEM 0.1 μM, DCA 2 mM, cultured adipocytes) was “approximately 60%”.
With insulin the “effect on proportional incorporation of glucose into triglyceride (in words)” value (isolated rat adipocytes [1]; insulin 0.16 to 1.6 nM, listed as Insulin) was “does not affect; also recorded: does not alter”, the “effect on glucose utilization (in words)” value (isolated rat adipocytes [2]) was “concentration dependent increase” and the “effect on glucose utilization (in words)” value (isolated rat adipocytes [2]; listed as Insulin) was “increases”. The “effect on activity of control plasmid (in words)” value (leptin promoter; insulin 10 nM, 2-DG 10 mg/dl) was “unaffected”, the “increase of leptin promoter activity” value (leptin promoter; insulin 0.1 to 10 nM, n=2 each) was 3-6 fold and the “effect on leptin promoter activity (in words)” value (leptin promoter; insulin 0.1 to 10 nM, 2-DG 10 mg/dl on basal and insulin-stimulated (10 nM) activity) was “increases”. For the same compound, the “effect on proportion of glucose converted to lactate (in words)” value (isolated rat adipocytes [3]; insulin 0.16 to 1.6 nM) was “decreases”, the “effect on proportion of glucose not converted to lactate or triglyceride (OTHER), by subtraction (in words)” value (isolated rat adipocytes [3]; insulin 0.16 to 1.6 nM) was “increases” and the “effect on leptin secretion (in words)” value (isolated rat adipocytes [4]; insulin 0.16 to 1.6 nM) was “concentration-dependent increases; also recorded: concentration dependent increase”.
